Measurements reported in patent US8754233B2, “Pyrazolylbenzothiazole derivatives and their use as therapeutic agents” (Dermira (Canada), Inc., priority 2002, dated 2014).

Legend:
MCP1 on HUVECS = assay: Inhibition of MCP-1 release from TNFα-stimulated HUVEC; type: cell-based, human; details: 18-24 hours, ELISA
Excerpt: The activation of endothelial cells by pro-inflammatory cytokine TNF-α leads to the production of several chemokines. The release of these chemokines play an important role in leukocyte trafficking and extravasation of leukocytes into tissue during inflammation. MCP-1 and IL-8 are among the chemokines released upon stimulation of human endothelial cells (HUVECs) by TNFα, and contribute to migration of monocytes to the sites of inflammation. Cells should not be passaged more than 6 times.
Cells were maintained and grown in tissue culture flasks (T75) in endothelial cell growth medium (EGM, Clonetics) containing 5 additional supplements (EGM-5) in medium [human recombinant endothelial growth factor (hEGF), hydrocortisone (HC), bovine brain extract (BBE), fetal bovine serum (FBS) and Gentamycin (GA)] incubated at 37° C., 5% CO2. The cells should be propagated a maximum of 20 passages.
The plates were incubated overnight at 37° C., 5% CO2 to enable the cells to attach and grow.
The working concentration of TNFα was 1,000 pg/ml. A twenty times working concentration of TNFα was 20,000 pg/ml was prepared using EGM-5. The test compounds, DMSO negative vehicle control and staurosporine positive control were diluted 20× using EGM-5. Ten μL each of the compounds, DMSO and staurosporine were combined with 180 μl of medium containing HUVEC cells. Immediately following the addition of the compounds, 10 μl of […] TNFα was added to the wells. Medium without TNFα was added to the control wells. […] The plates were incubated at 37° C. in 5% CO2 in humidified conditions overnight (18-24 hours) for TNFα.
At the completion of the stimulation, the plates were spun at 2000 rpm for 10 minutes. The supernatants from each well were transferred to fresh plates for MCP1 analysis by ELISA.
[…] were determined with PharMingen's OptEIA™ MCP1 Kit (PharMingen) according to manufacturer's instructions.
The data is represented as a percentage of MCP1 inhibition by the following formula: % MCP1 inhibition=100−(AVG treatment/AVG DMSO control)*100.

macrophages = assay: Survival of macrophages; type: cell-based, mouse; details: stimulated primary macrophages
TNFa on macrophages = assay: Inhibition of TNFα release from stimulated macrophages; type: cell-based, mouse; details: LPS and IFN-γ stimulated primary macrophages, ELISA
Description: Peritoneal exudate macrophages were isolated by peritoneal lavage with ice-cold sterile physiological saline 24 hours after intraperitoneal injection of BALB/c mice with 0.5 mL of sterile Zymosan A (1 mg/0.5 mL 0.9% saline). […] Murine primary macrophage will get activated following incubation with LPS in the presence of sub-optimal doses of IFN-γ. […] TNF-αlevels in the supernatants from stimulated macrophages were determined with PharMingen's OptEIA TNF-α kit (PharMingen). The experiment was performed at room temperature, about 21° C., unless otherwise stated. The microwells (F8 MaxiSorp™ Loose/Nunc-Immuno Module; Gibco/BRL) were coated with 100 μl/well of capture antibody (at the recommended concentration) and incubated overnight at 4° C. […] Next, the solution was removed and the plates were washed 5× with wash buffer. The TNF-αanalysis was initiated by adding duplicate samples (100 μl/well) or standards (100 μl/well) in diluent buffer which were incubated for 2 h. The solution was removed and the plates washed 5× with wash buffer. Enzyme reagent (100 μl) containing biotinylated mouse TNF-αmonoclonal antibody and avidin-horseradish peroxidase conjugate (at concentrations recommended by the manufacturer) was added to each well. The plate was incubated for 1 hour, the solution removed, and the plates washed 7× with wash buffer. […] Colour development was terminated by adding 50 μl of 2N H2SO4. […] Peritoneal exudate macrophages were isolated by peritoneal lavage with ice-cold sterile physiological saline 24 hours after intraperitoneal injection of BALB/c mice with 0.3 ml of sterile zymosan A (1 mg/0.5 mL 0.9% saline). […] All treatments were replicated six times. Cells were incubated for an additional 24 hours, and cell free culture supernatants from each well were collected for NO and cytokine determination. The remaining cells were stained with crystal violet to determine effect of the compound on cell survival.

[1] = test system: IFNg on ConA 1° splenocytes; assay: Inhibition of IFNγ release from ConA-stimulated splenocytes; type: cell-based, mouse; details: ConA-stimulated Balb/c splenocytes, 18-24 hours, ELISA
Description: T-lymphocytes obtained from mice spleens are a suitable sample for studying the activation properties of this immunologically important cell type. T-lymphocytes are the main regulators for inflammation. Concanavalin A (ConA) is an effective activator of T-lymphocytes, which allows T-lymphocytes to proliferate and produce inflammatory cytokines, such as Interferon (IFNγ) and regulatory cytokines, such as Interleukin 10 (IL-10).
The spleens were transferred onto mesh screen containing 10 ml of ice cold RPMI-5 (1× sodium pyruvate and 5% FBS) and gently ground with a pestle. The cell suspensions were centrifuged at 1500 rpm for 6 minutes at 4° C. […] The supernatant was discarded and the pellet washed two additional times. The cells were resuspended in RPMI-5 and the cell suspensions combined. The cells were counted and their concentration was adjusted to 2.8×10^6 cells/ml using RPMI-5.
The working concentration of ConA was […]. A 20× working concentration of Concanavalin A was […] was prepared using RPMI-5. The test compounds, dimethylsulfoxide (DMSO) negative vehicle control and staurosporine positive control were diluted twenty times using RPMI-5. Ten μL each of DMSO and staurosporine were combined with 180 μl of medium containing splenocytes in the wells, and 10 μl of 50 μg/ml ConA was immediately added. Medium without ConA was added to the control wells. […] The plates were incubated at 37° C. in 5% CO2 in humidified conditions overnight (18-24 hours) for INFγ.
At the completion of the stimulation described above, the plates were spun at 2000 rpm for 10 minutes. The supernatants (100 μl) from each well were transferred to fresh plates for INFγ analysis by ELISA.
INFγ levels in the supernatants from stimulated lymphocytes were determined with PharMingen's OptEIA™ INFγ Kit (PharMingen) according to manufacturer's directions. The data, shown in Table 2 infra, is represented as a percentage of INFγ inhibition by the following formula: INFγ inhibition=100−(AVG treatment/AVG DMSO control)*100.

| IC50 (TNFa on macrophages) [µM] | IC50 [1] [µM] | Compound | IC50 (MCP1 on HUVECS) [µM] | IC50 (macrophages) [µM] |
| --- | --- | --- | --- | --- |
| 17.1 | 11 | COc1cc2sc(-c3c(NCCN(C)C)n[nH]c3N)nc2cc1F [N^3-(2-Dimethylaminoethyl)-4-(5-fluoro-6-methoxybenzothiazole)-1H-pyrazole-3,5-diamine] | > 25 | > 25 |
| 14.7 | 6.1 | COc1cc2sc(-c3c(N4CCNCC4)n[nH]c3N)nc2cc1F [4-(5-Fluoro-6-methoxybenzothiazole)-5-piperizin-1-yl-2H-pyrazol-3-ylamine] | 10.9 | > 25 |
